SMILES strings stand for the structures. Where two headings read alike, the source gives them in different places.

The target of one assay is T1, 11b-HSD1 (Mus musculus, UniProt P50172).
T1 construct: the tissues in abdominal fat and the liver were obtained; from tissue; host or cells: abdominal fat and liver of C57Bl/6 mice
The assay can be described thus: Ex vivo PD assay: 11b-HSD1 inhibition in abdominal fat and liver tissue after oral administration to mice. Conditions: mouse C57B1/6, oral, vs vehicle group; for inhibition at 10 mg/kg: 2 hr; for inhibition at 20 mg/kg: 6 hr. The protocol:
The prepared compound was orally administered to a mouse (C57B1/6, orient 8 week old, about 25 g, male) and in a proper amount of time (2 hours, 6 hours, 12 hours, 16 hours, and 24 hours), the mouse was sacrificed and around 30 to 40 mg of the tissues in abdominal fat and the liver were obtained. To 500 ul of a medium (RPMI, gibco) including 1 μM of cortisone (from Sigma Co. Ltd.) and 400 μM of NADPH (from Sigma Co. Ltd) was added the tissue as obtained (30-40 mg), which then reacted in a cell cultivator at 37° C. for 3 hours. After 50 ul of the reacted solution was taken and diluted with DMEM medium at a volume ratio of 1/10, the amount of cortisol being generated was measured by using a cortisol kit (assay designs Co. Ltd., ELISA kit) in accordance with the method set forth in the appended manual. From the results being measured, the degree of the inhibition was obtained by the conversion in comparison with the vehicle group (vehicle: 5% DMSO+5% cremophor in dw, the amount being proportionate to the body weight, i.e., the administration was made at the same volume as the drug being introduced). • Reference material: Published Aug. 15, 2005//JEM vol. 202 no. 4 517-527 The Rockefeller University Press % inhibition={(the amount of cortisol of the vehicle group−the amount of the cortisol of the group with the compound being administered)/(the amount of cortisol of the vehicle group)}×100
According to the above analyzing method, the efficacy of inhibiting 11b-HSD1 of the test compound in the target organ was calculated as % inhibition values, which are shown in Table 2 and Table 3.

Another assay concerns the target T2, Human 11b-HSD1 (Homo sapiens, UniProt P28845).
T2 construct: expressed in transfected cells
The assay can be described thus: Inhibition of cortisone-to-cortisol conversion in CHO-K1 cells over-expressing human 11b-HSD1 (HTRF cortisol assay). The assay is classed as cell-based. The conditions noted are these: CHO-K1 cells over-expressing human 11b-HSD1, 160 nM cortisone, 3 hours, 37° C. An excerpt:
(§1) cDNA (human: Accession No. U12978.2; mouse: Accession No. NM_008288.2) coding the full-length amino acid sequence of 11β-HSD1 in a human and a mouse was incorporated into pMSCVpuro (from Clontech. Co. Ltd.), a vector of expressing a mammalian cell for the production of a retrovirus, and the resulting product was introduced into a GP2-293 cell (from Clontech Co. Ltd.), a retrovirus packing cell line together with pVSV-G vector (from Clontech Co. Ltd.) by using a Lipotamine plus reagent (from Invitrogen Co. Ltd.) in accordance with the method set forth in the appendix (by using HTRF cortisol assay kit from Cisbio assays Co., Ltd., catalog No. 62CO2PEB) and stabilized for 48 hours. Thereafter, viruses being obtained from those cells were used to infect CHO-K1 cell (from Korean Cell Line Bank, KCLB No. 10061) and in 24 hours, the cells were treated with 10 μg/ml pumycin (from Sigma Co. Ltd.) for two weeks to produce a stabilized cell system wherein each 11β-HSD1 in humans or in mice was over-expressed. When the cells being maintained, 5 μg/ml of puromycin was put into the medium and used (RPMI (Gibco), 37° C.). • Reference material: The EMBO Journal (2008) 27, 642-653
(§2) The obtained cells with 11b-HSD1 in a human and a mouse being over-expressed were sub-cultured in a 96-well plate with a cell number being 3×10^4 cells per well and stabilized for 24 hours [RPMI (Gibco), at 37° C., as being used in 5 days after thawing]. After a medium as diluted with DMSO including 160 nM of cortisone (from Sigma Co. Ltd.) and a test compound at a different concentration was put into each well in an amount of 200 ul, the well was cultured in a cell cultivator at 37° C. for 3 hours. 10 ul of the cultured solution was put into a 384 well plate and the amount of cortisol as generated was measured using a cortisol kit (from Cisbio international Co. Ltd, HTRF assay) in accordance with the method set forth in the appended manual.
(§3) As a control group, 160 nM of cortisone and 1% of DMSO were put into a corresponding well. The ground value was obtained from a well including only 160 nM of cortisone and 1% of DMSO without cells just like the control group. The calculation for a % inhibition level was made following the manual as appended. • Reference material: The Journal of Steroid Biochemistry and Molecular Biology, Volume 104, Issues 3-5, May 2007, Pages 123-129 • Bioorganic & Medicinal Chemistry Letters Volume 19, Issue 10, 15 May 2009, Pages 2674-2678
(§4) Like the analyzing method as stated above, the efficacy of inhibiting 11b-HSD1 was calculated as IC50 and the results are shown in Table 1: […]
(In general: TR-FRET usually uses a lanthanide donor and a delayed reading to cut background.)

Another assay has as its target T3, Mouse 11b-HSD1 (Mus musculus, UniProt P50172).
T3 construct: expressed in transfected cells
The assay can be described thus: Inhibition of cortisone-to-cortisol conversion in CHO-K1 cells over-expressing mouse 11b-HSD1 (HTRF cortisol assay). Format: cell-based. Conditions: CHO-K1 cells over-expressing mouse 11b-HSD1, 160 nM cortisone, 3 hours, 37° C.
Description: as §1, §2, §3, §4

Where [1] appears, read: abdominal fat, read-out: 11b-HSD1 % inhibition in the fat.
Where [2] appears, read: liver, read-out: 11b-HSD1 % inhibition in the liver.

T1 sequence (P50172 whole entry): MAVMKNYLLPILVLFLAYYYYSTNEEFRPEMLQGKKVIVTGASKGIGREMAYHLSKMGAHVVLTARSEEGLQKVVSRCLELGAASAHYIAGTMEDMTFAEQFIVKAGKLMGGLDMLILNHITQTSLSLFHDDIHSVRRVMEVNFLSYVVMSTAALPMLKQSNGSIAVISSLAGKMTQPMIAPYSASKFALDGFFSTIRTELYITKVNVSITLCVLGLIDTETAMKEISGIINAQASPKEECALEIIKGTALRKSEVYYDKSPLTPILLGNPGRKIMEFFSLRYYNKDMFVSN
T3 sequence (P50172 whole entry): as above
T2 sequence (P28845 whole entry): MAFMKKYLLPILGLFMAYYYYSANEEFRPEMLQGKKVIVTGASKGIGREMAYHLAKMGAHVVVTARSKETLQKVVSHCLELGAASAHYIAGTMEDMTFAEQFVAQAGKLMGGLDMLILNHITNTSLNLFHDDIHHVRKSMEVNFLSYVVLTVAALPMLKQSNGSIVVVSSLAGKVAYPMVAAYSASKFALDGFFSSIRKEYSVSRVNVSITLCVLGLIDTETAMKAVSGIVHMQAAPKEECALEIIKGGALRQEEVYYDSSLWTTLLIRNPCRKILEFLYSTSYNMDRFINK

Consider `NC(=O)[C@]12CC3CC(C1)[C@@H](NC(=O)c1ccc(-c4ccccc4)o1)C(C3)C2` [Example 1, N-(5-carbamoyl-2-adamantyl)-5-phenylfuran-2-carboxamide], for which the figures for the inhibition at 10 mg/kg on 11b-HSD1 (setting [1]) and at 11b-HSD1 (setting [2]) were 91% and 85%, respectively. In addition, the figures for the inhibition at 20 mg/kg at 11b-HSD1 (setting [1]) and at 11b-HSD1 (setting [2]) were 83% and 70%, respectively. In addition, the IC50 on Human 11b-HSD1 and against Mouse 11b-HSD1 was < 0.1 µM in each case.
Turning to `NC(=O)[C@]12CC3CC(C1)[C@@H](NC(=O)c1ccc(-c4ccc(Cl)cc4)o1)C(C3)C2` [Example 2, N-(5-carbamoyl-2-adamantyl)-5-(4-chlorophenyl)furan-2-carboxamide], the figures for the inhibition at 10 mg/kg at 11b-HSD1 (setting [1]) and at 11b-HSD1 (setting [2]) were 84% and 68%, respectively. In addition, the inhibition (commonly how much of the control response was suppressed) at 20 mg/kg was 85% on 11b-HSD1 (setting [1]) and 44% on 11b-HSD1 (setting [2]). The values for the IC50 against Human 11b-HSD1 and against Mouse 11b-HSD1 were < 0.1 µM and 0.1 to 0.5 µM, respectively.
Turning to `NC(=O)[C@]12CC3CC(C1)[C@@H](NC(=O)c1ccc4ccccc4n1)C(C3)C2` [Example 18, N-(5-carbamoyl-2-adamantyl)quinoline-2-carboxamide], the inhibition at 10 mg/kg worked out at 58% at 11b-HSD1 (setting [1]) and 62% on 11b-HSD1 (setting [2]). Besides, the inhibition at 20 mg/kg at 11b-HSD1 (setting [1]) came out at 65%; on 11b-HSD1 (setting [2]) it was 61%. Besides, the half-maximal inhibitory concentration (IC50) against Human 11b-HSD1 and at Mouse 11b-HSD1 was < 0.1 µM in each case.
Regarding `NC(=O)[C@]12CC3CC(C1)[C@@H](NC(=O)c1cccc4cccnc14)C(C3)C2` [Example 19, N-(5-carbamoyl-2-adamantyl)quinoline-8-carboxamide], the inhibition at 10 mg/kg at 11b-HSD1 (setting [1]) is 51%; on 11b-HSD1 (setting [2]) it was 50%. In addition, the IC50 against Human 11b-HSD1 and on Mouse 11b-HSD1 was < 0.1 µM in each case.
As for `NC(=O)[C@]12CC3CC(C1)[C@@H](NC(=O)c1ccc(-c4cccc(Cl)c4)o1)C(C3)C2` [Example 26, N-(5-carbamoyl-2-adamantyl)-5-(3-chlorophenyl)furan-2-carboxamide], the inhibition at 20 mg/kg on 11b-HSD1 (setting [1]) is 71%; at 11b-HSD1 (setting [2]), 47%. The IC50 against Human 11b-HSD1 and at Mouse 11b-HSD1 was < 0.1 µM each time.
For `NC(=O)[C@]12CC3CC(C1)[C@@H](NC(=O)c1ccc(-c4ccccc4Cl)o1)C(C3)C2` [Example 27, N-(5-carbamoyl-2-adamantyl)-5-(2-chlorophenyl)furan-2-carboxamide], the inhibition at 20 mg/kg on 11b-HSD1 (setting [1]) stood at 80%; at 11b-HSD1 (setting [2]), 65%. Also, the IC50 on Human 11b-HSD1 and against Mouse 11b-HSD1 was < 0.1 µM each time.
Consider `NC(=O)[C@]12CC3CC(C1)[C@@H](NC(=O)c1ccc(-c4ccccc4F)o1)C(C3)C2` [Example 30, N-(5-carbamoyl-2-adamantyl)-5-(2-fluorophenyl)furan-2-carboxamide], for which the inhibition at 20 mg/kg was 72% at 11b-HSD1 (setting [1]) and 69% at 11b-HSD1 (setting [2]). Besides, the IC50 against Human 11b-HSD1 and against Mouse 11b-HSD1 was < 0.1 µM throughout.
Take `Cn1c(C(=O)N[C@H]2C3CC4CC2C[C@](C(N)=O)(C4)C3)ccc1-c1ccccc1` [Example 34, N-(5-carbamoyl-2-adamantyl)-1-methyl-5-phenylpyrrole-2-carboxamide]: the inhibition at 20 mg/kg on 11b-HSD1 (setting [1]) was 96%; on 11b-HSD1 (setting [2]), 92%. Besides, the IC50 against Human 11b-HSD1 and against Mouse 11b-HSD1 was < 0.1 µM throughout.
Turning to `Cn1c(C(=O)N[C@H]2C3CC4CC2C[C@](C(N)=O)(C4)C3)ccc1-c1ccccc1Cl` [Example 38, N-(5-carbamoyl-2-adamantyl)-5-(2-chlorophenyl)-1-methylpyrrole-2-carboxamide], the inhibition at 20 mg/kg on 11b-HSD1 (setting [1]) and on 11b-HSD1 (setting [2]) was 98% in each case. The IC50 against Human 11b-HSD1 and on Mouse 11b-HSD1 was < 0.1 µM in each case.
As for `Cn1c(C(=O)N[C@H]2C3CC4CC2C[C@](C(N)=O)(C4)C3)ccc1-c1ccccc1F` [Example 39, N-(5-carbamoyl-2-adamantyl)-5-(2-fluorophenyl)-1-methylpyrrole-2-carboxamide], the inhibition at 20 mg/kg at 11b-HSD1 (setting [1]) was determined as 98%; on 11b-HSD1 (setting [2]), 96%. Moreover, the IC50 against Human 11b-HSD1 and at Mouse 11b-HSD1 was < 0.1 µM throughout.
For `NC(=O)[C@]12CC3CC(C1)[C@@H](NC(=O)c1ccc(-c4ccccc4)s1)C(C3)C2` [Example 40, N-(5-carbamoyl-2-adamantyl)-5-phenylthiophene-2-carboxamide], the inhibition at 20 mg/kg turned out to be 63% on 11b-HSD1 (setting [1]) and 38% at 11b-HSD1 (setting [2]). Further, the IC50 against Human 11b-HSD1 and against Mouse 11b-HSD1 was < 0.1 µM each time.
Consider `NC(=O)[C@]12CC3CC(C1)[C@@H](NC(=O)c1ccc(-c4ccccc4Cl)s1)C(C3)C2` [Example 43, N-(5-carbamoyl-2-adamantyl)-5-(2-chlorophenyl)thiophene-2-carboxamide], for which the inhibition at 20 mg/kg was found to be 70% at 11b-HSD1 (setting [1]) and 59% on 11b-HSD1 (setting [2]). For the same compound, the half-maximal inhibitory concentration (IC50) against Human 11b-HSD1 and against Mouse 11b-HSD1 was < 0.1 µM each time.
Turning to `NC(=O)[C@]12CC3CC(C1)[C@@H](NC(=O)c1cccc(N4CCC(c5ccccc5)CC4)n1)C(C3)C2` [Example 62, N-(5-carbamoyl-2-adamantyl)-6-(4-phenylpiperidin-1-yl)pyridine-2-carboxamide], the IC50 – broadly, the concentration that gives 50% inhibition – was < 0.1 µM against Human 11b-HSD1 and 0.1 to 0.5 µM on Mouse 11b-HSD1.
In the same order, the values of `Cc1cccc(C(=O)N[C@H]2C3CC4CC2C[C@](C(N)=O)(C4)C3)[n+]1[O-]` [Example 63, N-(5-carbamoyl-2-adamantyl)-6-methyl-1-oxidopyridine-1-ium-2-carboxamide] are 0.1 to 0.5 µM and > 0.5 µM.
Consider `NC(=O)[C@]12CC3CC(C1)[C@@H](NC(=O)c1ccc4ccccc4[n+]1[O-])C(C3)C2` [Example 64, N-(5-carbamoyl-2-adamantyl)-1-oxidoquinolin-1-ium-2-carboxamide], for which the results for the inhibition at 10 mg/kg on 11b-HSD1 (setting [1]) and at 11b-HSD1 (setting [2]) were 51% and 61%, respectively. Besides, the inhibition at 20 mg/kg on 11b-HSD1 (setting [1]) was 57%; at 11b-HSD1 (setting [2]), 48%. The IC50 against Human 11b-HSD1 was > 0.5 µM; against Mouse 11b-HSD1, 0.1 to 0.5 µM.
In the case of `CN(C)c1cccc(C(=O)N[C@H]2C3CC4CC2C[C@](C(N)=O)(C4)C3)[n+]1[O-]` [Example 65, N-(5-carbamoyl-2-adamantyl)-6-(dimethylamino)-1-oxidopyridin-1-ium-2-carboxamide], the IC50 against Human 11b-HSD1 is < 0.1 µM; on Mouse 11b-HSD1 it was 0.1 to 0.5 µM.
